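Each compound was tested at five concentrations against cells in 96-well plates for 48 hours. GI50 marks 50% less growth.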 Active and inactive are the calls of the source. Rule as the data show it: active = GI50 up to about 1.1 µM and inactive = higher.
How the values were obtained:
Experiment in all cases: NCI-60 cell line screen, 48 h
786-0 = test system: 786-0
A549 = test system: A549
CAKI-1 = test system: CAKI-1
COLO 205 = test system: COLO 205
HOP-62 = test system: HOP-62
HOP-92 = test system: HOP-92
HT-29 = test system: HT-29
Hs-578T = test system: Hs-578T
IGROV-1 = test system: IGROV-1
MDA-MB-231 = test system: MDA-MB-231
MDA-N = test system: MDA-N
OVCAR-4 = test system: OVCAR-4
OVCAR-8 = test system: OVCAR-8
SF-268 = test system: SF-268
SK-MEL-2 = test system: SK-MEL-2
SW-620 = test system: SW-620
U-251 = test system: U-251
SR = test system: SR
PC-3 = test system: PC-3

Measured: GI50

CCOP(=O)(OCC)C(C)(CC)NC (configuration not stated)
inactive: 786-0 > 100 µM | A549 > 100 µM | CAKI-1 > 100 µM | COLO 205 > 100 µM | HOP-62 > 100 µM | HOP-92 > 100 µM | HT-29 > 100 µM | Hs-578T > 100 µM | IGROV-1 > 100 µM | MDA-MB-231 > 100 µM | MDA-N > 100 µM | OVCAR-4 > 100 µM | OVCAR-8 > 100 µM | SF-268 > 100 µM | SK-MEL-2 > 100 µM | SW-620 > 100 µM | U-251 > 100 µM

S=C1NCCN1
inactive: 786-0 > 100 µM | A549 > 100 µM | CAKI-1 > 100 µM | COLO 205 > 100 µM | HOP-62 > 100 µM | HOP-92 > 100 µM | HT-29 > 100 µM | IGROV-1 > 100 µM | OVCAR-4 > 100 µM | OVCAR-8 > 100 µM | SF-268 > 100 µM | SK-MEL-2 > 100 µM | SR > 100 µM | SW-620 > 100 µM | U-251 > 100 µM

COc1ccc(C(=O)C(c2ccc(OC)cc2)C2(O)C(=O)Nc3ccccc32)cc1 (configuration not stated)
inactive: 786-0 > 100 µM | A549 > 100 µM | CAKI-1 > 100 µM | HOP-92 > 100 µM | HT-29 94.6 µM | IGROV-1 > 100 µM | SF-268 > 100 µM | SK-MEL-2 > 100 µM | SR > 100 µM | SW-620 > 100 µM | U-251 > 100 µM

COC(=O)CC1NC(=O)C1C1(C)OCCO1 (configuration not stated)
inactive: 786-0 > 100 µM | A549 > 100 µM | COLO 205 > 100 µM | HOP-62 > 100 µM | HT-29 > 100 µM | IGROV-1 > 100 µM | OVCAR-4 > 100 µM | OVCAR-8 > 100 µM | SF-268 > 100 µM | SK-MEL-2 > 100 µM | SR > 100 µM | SW-620 > 100 µM | U-251 > 100 µM

Cc1cc2[nH]c3c(C#N)c(-c4ccccc4)c(/N=N/c4cccc(C(F)(F)F)c4)c(=O)n3c2cc1C
inactive: 786-0 35.8 µM | A549 25.3 µM | CAKI-1 32 µM | COLO 205 42.2 µM | HOP-62 > 100 µM | IGROV-1 21.8 µM | MDA-MB-231 85.5 µM | MDA-N 28.3 µM | OVCAR-4 39.5 µM | OVCAR-8 26.1 µM | PC-3 32.2 µM | SF-268 32.6 µM | SK-MEL-2 58.1 µM | SW-620 35.8 µM | U-251 39.3 µM

CC(SC(=S)N1CCCCC1)C(=O)Nc1nnc(-c2ccc(Cl)cc2)o1 (configuration not stated)
inactive: 786-0 16.9 µM | A549 30.3 µM | COLO 205 34.9 µM | HOP-62 11.8 µM | HOP-92 45.8 µM | HT-29 23 µM | Hs-578T 40.6 µM | IGROV-1 32 µM | MDA-MB-231 26.7 µM | OVCAR-4 27.4 µM | OVCAR-8 38.5 µM | PC-3 24.2 µM | SF-268 17.5 µM | SK-MEL-2 21.7 µM | SW-620 36.2 µM | U-251 24.7 µM

Cc1ccc(Nc2nc(=O)c3c4ccccc4n(C(=O)OC(C)(C)C)c3s2)cc1
inactive: 786-0 15.3 µM | A549 28.8 µM | CAKI-1 18.2 µM | COLO 205 35.4 µM | HOP-62 27.9 µM | HOP-92 23.1 µM | HT-29 30.1 µM | Hs-578T 33.2 µM | IGROV-1 21.9 µM | MDA-MB-231 33.1 µM | OVCAR-4 37.9 µM | OVCAR-8 39.7 µM | PC-3 29 µM | SF-268 20.6 µM | SK-MEL-2 20.7 µM | SR 12.8 µM | SW-620 28.4 µM | U-251 30.1 µM

COc1cc(S(=O)(=O)Nc2ccc(-c3csc(N4C(=O)CSC4c4cccs4)n3)cc2)ccc1Cl (configuration not stated)
inactive: 786-0 28.4 µM | A549 86.9 µM | CAKI-1 79.8 µM | COLO 205 31.8 µM | HOP-62 42.7 µM | HOP-92 23.7 µM | HT-29 39.8 µM | Hs-578T 30.3 µM | IGROV-1 27.1 µM | MDA-N 29.4 µM | OVCAR-4 18.4 µM | OVCAR-8 41.5 µM | PC-3 24.9 µM | SF-268 19.8 µM | SK-MEL-2 20.5 µM | SR 29.7 µM | SW-620 24.7 µM

Cc1ccc(S(=O)(=O)N/N=C2/CCC3(O)CC2(C)CCC2[C@H]3CC2(C)C)cc1 (some centres not stated)
inactive: 786-0 31.8 µM | A549 27.3 µM | CAKI-1 52.6 µM | COLO 205 16.3 µM | HOP-62 43 µM | HOP-92 29.2 µM | HT-29 33.6 µM | Hs-578T 35.5 µM | IGROV-1 23.5 µM | MDA-N 30.7 µM | OVCAR-4 35.9 µM | OVCAR-8 34.7 µM | PC-3 12.5 µM | SF-268 68.1 µM | SK-MEL-2 23.8 µM | SR 35.9 µM | SW-620 27.9 µM | U-251 17.5 µM

O=C(CN1CCN(Cc2ccccc2)CC1)c1ccc2[nH]c(=O)oc2c1
inactive: 786-0 > 100 µM | A549 > 100 µM | CAKI-1 > 100 µM | COLO 205 > 100 µM | HOP-62 > 100 µM | HOP-92 53.1 µM | HT-29 > 100 µM | IGROV-1 99.3 µM | MDA-MB-231 > 100 µM | MDA-N > 100 µM | OVCAR-4 > 100 µM | OVCAR-8 > 100 µM | PC-3 > 100 µM | SF-268 > 100 µM | SK-MEL-2 > 100 µM | SR > 67.1 µM | SW-620 > 100 µM | U-251 > 88.7 µM

CC(C)c1cccc(C(C)C)c1NC(=O)C(=O)C(C(=O)c1ccc2ccccc2c1)C1OC(=O)c2ccccc21 (configuration not stated)
inactive: 786-0 > 100 µM | A549 > 100 µM | CAKI-1 52.4 µM | COLO 205 > 100 µM | HOP-62 82.2 µM | HOP-92 27.9 µM | HT-29 > 100 µM | IGROV-1 > 100 µM | OVCAR-4 > 100 µM | OVCAR-8 > 10 µM | SF-268 > 100 µM | SK-MEL-2 > 100 µM | SR > 100 µM | SW-620 > 100 µM | U-251 > 100 µM

O=C1OC(Cl)C(N=P(c2ccccc2)(c2ccccc2)c2ccccc2)=C1Cl (configuration not stated)
inactive: 786-0 80.4 µM | A549 > 100 µM | CAKI-1 > 100 µM | COLO 205 > 100 µM | HOP-62 > 100 µM | HOP-92 > 100 µM | HT-29 > 100 µM | IGROV-1 > 100 µM | OVCAR-4 > 100 µM | OVCAR-8 > 100 µM | SF-268 > 100 µM | SK-MEL-2 > 100 µM | SR > 100 µM | SW-620 > 100 µM

Cc1ccc(/C=C/C(=O)C(C)C)cc1
inactive: 786-0 55 µM | A549 > 100 µM | COLO 205 > 100 µM | HOP-92 41.8 µM | HT-29 37.3 µM | IGROV-1 92 µM | OVCAR-4 > 100 µM | OVCAR-8 96.8 µM | SF-268 > 100 µM | SK-MEL-2 36.3 µM | SR 31.8 µM | SW-620 47.5 µM | U-251 24.5 µM

Cc1nc2ccc(F)cc2c2c1CCS2
inactive: 786-0 78.7 µM | A549 > 100 µM | COLO 205 38.5 µM | HOP-62 57.4 µM | HOP-92 94.6 µM | HT-29 71.8 µM | Hs-578T 43 µM | IGROV-1 > 100 µM | MDA-MB-231 39.9 µM | OVCAR-4 > 100 µM | OVCAR-8 69.3 µM | PC-3 41.1 µM | SF-268 40.6 µM | SR 56.8 µM | SW-620 > 100 µM | U-251 50.4 µM

CC(=O)c1cccc(Nc2nc3ccccc3c3occc23)c1
inactive: 786-0 16.7 µM | A549 13.5 µM | CAKI-1 32.8 µM | COLO 205 > 100 µM | HOP-62 14 µM | HOP-92 9.64 µM | HT-29 6.22 µM | MDA-MB-231 24.8 µM | OVCAR-4 16.2 µM | OVCAR-8 20.4 µM | PC-3 31.3 µM | SF-268 22.2 µM | SR 47 µM | U-251 17.9 µM

CC1(C)CC(=O)C(CC2C(=O)c3ccccc3C2=O)C(=O)C1C(=O)C(=O)Nc1cccc2ccc(O)cc12 (configuration not stated)
inactive: 786-0 > 100 µM | A549 > 100 µM | CAKI-1 34.4 µM | COLO 205 > 100 µM | HOP-92 70.3 µM | HT-29 > 100 µM | Hs-578T 74.6 µM | IGROV-1 48.9 µM | MDA-MB-231 34 µM | OVCAR-4 88.7 µM | OVCAR-8 > 100 µM | PC-3 51.4 µM | SF-268 > 100 µM | SK-MEL-2 > 100 µM | SW-620 > 100 µM | U-251 > 100 µM

CC(=O)N[C@H]1CCCC[C@@H]1OC(C)=O
inactive: 786-0 > 100 µM | CAKI-1 > 100 µM | COLO 205 > 100 µM | HOP-62 > 100 µM | HOP-92 > 100 µM | HT-29 > 100 µM | Hs-578T > 100 µM | IGROV-1 > 100 µM | MDA-MB-231 > 100 µM | MDA-N > 100 µM | OVCAR-4 > 100 µM | OVCAR-8 > 100 µM | PC-3 > 100 µM | SK-MEL-2 > 100 µM | SW-620 > 100 µM | U-251 > 100 µM

— ChEMBL document CHEMBL1201862, “PubChem BioAssay data set” (2004)
